Data taken from US9394297B2, “Amides as pim inhibitors” (AMGEN INC., priority 2012, dated 2016).
Like-named read-outs stand apart in the source and are kept apart here.

Columns and labels:
[1] = molecular target: Pim-1 (Homo sapiens (Human), UniProt P11309); assay: Pim-Mn enzyme assay (HTRF, 384-well), Pim-1; assay type: biochemical; conditions: read-out: Pim-1-Mn IC50 IP
[2] = molecular target: Pim-2 (Homo sapiens (Human), UniProt Q9P1W9); assay: Pim-Mn enzyme assay (HTRF, 384-well), Pim-2; assay type: biochemical; conditions: read-out: Pim-2-Mn IC50 IP
Sequence of Pim-2 (Q9P1W9 whole entry): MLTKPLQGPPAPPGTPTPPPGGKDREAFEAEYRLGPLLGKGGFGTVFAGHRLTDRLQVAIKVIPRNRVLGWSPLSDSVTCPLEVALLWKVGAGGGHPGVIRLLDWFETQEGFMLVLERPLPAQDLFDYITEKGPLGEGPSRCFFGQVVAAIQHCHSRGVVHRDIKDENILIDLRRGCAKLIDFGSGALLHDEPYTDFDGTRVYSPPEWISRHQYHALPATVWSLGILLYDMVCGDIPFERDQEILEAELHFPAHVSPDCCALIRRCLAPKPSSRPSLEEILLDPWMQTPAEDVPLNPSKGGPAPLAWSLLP

[3] = Pim-1 enzyme 5 pM, ATP 1.5 μM, BAD (S112) 0.5 μM, HTRF, 22-point curve
[4] = Pim-2 enzyme 0.5 pM, ATP 1.5 μM, BAD (S112) 0.5 μM, HTRF, 22-point curve

Sequence of Pim-1 (P11309 whole entry): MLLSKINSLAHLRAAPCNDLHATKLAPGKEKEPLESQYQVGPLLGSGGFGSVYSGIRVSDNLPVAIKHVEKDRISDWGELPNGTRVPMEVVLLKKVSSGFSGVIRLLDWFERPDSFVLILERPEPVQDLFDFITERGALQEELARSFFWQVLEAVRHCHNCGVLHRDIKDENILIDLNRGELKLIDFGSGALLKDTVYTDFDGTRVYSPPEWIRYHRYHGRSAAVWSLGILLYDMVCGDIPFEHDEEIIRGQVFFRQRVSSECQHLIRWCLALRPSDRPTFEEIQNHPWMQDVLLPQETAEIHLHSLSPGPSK

Structure (SMILES) | IC50 [1, 3] [nM] | IC50 [2, 4] [nM] | IC50 [2] [nM] | IC50 [1] [nM]
C[C@H]1NC(=O)c2cc(-c3cccc4c(=O)n(C5CC5)c(NC5(C)CCC5)nc34)[nH]c21 [Example 496, (R)-3-cyclopropyl-8-(6-methyl-4-oxo-1,4,5,6-tetrahydropyrrolo[3,4-b]pyrrol-2-yl)-2-((1-methylcyclobutyl)amino)quinazolin-4(3H)-one] | 0.2 | 0.2 | – | –
CC(=O)N1CC[C@H](Nc2nc3c(-c4cc5c([nH]4)CCNC5=O)cccc3nc2C)C1 [Example 65, (S)-2-(3-((1-acetylpyrrolidin-3-yl)amino)-2-methylquinoxalin-5-yl)-6,7-dihydro-1H-pyrrolo[3,2-c]pyridin-4(5H)-one] | 57.8 | – | 72.8 | –
CCn1c(NC2(C)CC2)nc2c(-c3cc4c([nH]3)[C@@H](C)NC4=O)c(F)ccc2c1=O [Example 513, (R)-3-Ethyl-7-fluoro-8-(6-methyl-4-oxo-1,4,5,6-tetrahydropyrrolo[3,4-b]pyrrol-2-yl)-2-((1-methylcyclopropyl)amino)quinazolin-4(3H)-one] | 0.013 | 0.0378 | – | –
Cc1nc2cccc(-c3cc4c([nH]3)C[C@@H](C)NC4=O)c2nc1NC(C)(C)C [Example 289, (6R)-2-(3-(tert-butylamino)-2-methyl-5-quinoxalinyl)-6-methyl-1,5,6,7-tetrahydro-4H-pyrrolo[3,2-c]pyridin-4-one] | 2.69 | 3.37 | – | –
Cc1nc2cccc(-c3cc4c([nH]3)CCNC4=O)c2nc1N[C@@H]1CCN(C(=O)OC(C)(C)C)C1 [Example 48, tert-butyl (3R)-3-((3-methyl-8-(4-oxo-4,5,6,7-tetrahydro-1H-pyrrolo[3,2-c]pyridin-2-yl)-2-quinoxalinyl)amino)-1-pyrrolidinecarboxylate] | 26.2 | 116 | – | –
Cc1nc2cccc(-c3cc4c([nH]3)CCNC4=O)c2nc1OC1CCC1 [Example 151, 2-(3-cyclobutoxy-2-methylquinoxalin-5-yl)-6,7-dihydro-1H-pyrrolo[3,2-c]pyridin-4(5H)-one] | 18.2 | 12.3 | – | –
Cc1nc2cccc(-c3cc4c([nH]3)CCNC4=O)c2nc1NS(C)(=O)=O [Example 240, N-(3-methyl-8-(4-oxo-4,5,6,7-tetrahydro-1H-pyrrolo[3,2-c]pyridin-2-yl)quinoxalin-2-yl)methanesulfonamide 2,2,2-trifluoroacetate] | – | – | 9.6 | 87.5
Cc1nc2cccc(-c3cc4c([nH]3)CCNC4=O)c2nc1OCC(C)(C)C [Example 152, 2-(2-methyl-3-(neopentyloxy)quinoxalin-5-yl)-6,7-dihydro-1H-pyrrolo[3,2-c]pyridin-4(5H)-one] | 54.2 | 44.7 | – | –
Cc1nc2cccc(-c3cc4c([nH]3)CCNC4=O)c2nc1N[C@H]1CCNC1 [Example 55, 2-(2-methyl-3-((3S)-3-pyrrolidinylamino)-5-quinoxalinyl)-1,5,6,7-tetrahydro-4H-pyrrolo[3,2-c]pyridin-4-one] | 0.7 | 3 | – | –
Cc1nc2cccc(-c3cc4c([nH]3)CCNC4=O)c2nc1OCCC(C)(C)N [Example 269, 2-(3-(3-amino-3-methylbutoxy)-2-methyl-5-quinoxalinyl)-1,5,6,7-tetrahydro-4H-pyrrolo[3,2-c]pyridin-4-one] | 44.5 | 65.3 | – | –
COC(=O)C(C)(C)Nc1nc2c(-c3cc4c([nH]3)CCNC4=O)cccc2nc1C [Example 57, Methyl 2-methyl-N-(3-methyl-8-(4-oxo-4,5,6,7-tetrahydro-1H-pyrrolo[3,2-c]pyridin-2-yl)-2-quinoxalinyl)alaninate] | 24.2 | 54.3 | – | –
Cc1nc2cccc(-c3cc4n(c3)C(CCO)CNC4=O)c2nc1NC(C)(C)C (racemic) [Example 235, (±)-7-(3-(tert-butylamino)-2-methyl-5-quinoxalinyl)-4-(2-hydroxyethyl)-3,4-dihydropyrrolo[1,2-a]pyrazin-1(2H)-one] | 9.5 | 14.5 | – | –
C[C@H]1NC(=O)c2cc(-c3cccc4c(=O)n(CCCO)c(NC(C)(C)C)nc34)[nH]c21 [Example 500, 2-(tert-butylamino)-3-(3-hydroxypropyl)-8-((6R)-6-methyl-4-oxo-1,4,5,6-tetrahydropyrrolo[3,4-b]pyrrol-2-yl)-4(3H)-quinazolinone] | 0.12 | 0.11 | – | –

Further lines, with some results ahead:

IC50 [1, 3] [nM] | IC50 [2, 4] [nM] | Structure (SMILES) | IC50 [2] [nM] | IC50 [1] [nM]
43.7 | 68.4 | CC(=O)N1CCC[C@@H](Nc2nc3c(-c4cc5c([nH]4)CCNC5=O)cccc3nc2C)C1 [Example 241, 2-(3-(((3R)-1-acetyl-3-piperidinyl)amino)-2-methyl-5-quinoxalinyl)-1,5,6,7-tetrahydro-4H-pyrrolo[3,2-c]pyridin-4-one] | – | –
2 | 5.9 | Cc1nc2cccc(-c3cc4c([nH]3)CCNC4=O)c2nc1NC1CNC1 [Example 150, 2-(3-(azetidin-3-ylamino)-2-methylquinoxalin-5-yl)-6,7-dihydro-1H-pyrrolo[3,2-c]pyridin-4(5H)-one] | – | –
0.8 | 0.8 | CC[C@H]1NC(=O)c2cc(-c3cccc4c(=O)n(C)c(NC(C)(C)C)nc34)[nH]c21 [Example 505, (R)-2-(tert-butylamino)-8-(6-ethyl-4-oxo-1,4,5,6-tetrahydropyrrolo[3,4-b]pyrrol-2-yl)-3-methylquinazolin-4(3H)-one] | – | –
0.718 | 2.77 | C[C@H]1NC(=O)c2cc(-c3cccc4c(=O)n(-c5cccnc5)c(NC(C)(C)C)nc34)[nH]c21 [Example 482, 2-(tert-butylamino)-8-((6R)-6-methyl-4-oxo-1,4,5,6-tetrahydropyrrolo[3,4-b]pyrrol-2-yl)-3-(3-pyridinyl)-4(3H)-quinazolinone] | – | –
25.9 | 34.5 | CC(=O)N1CC[C@@H](Nc2nc3c(-c4cc5c([nH]4)CCNC5=O)cccc3nc2C)C1 [Example 64, 2-(3-(((3R)-1-acetyl-3-pyrrolidinyl)amino)-2-methyl-5-quinoxalinyl)-1,5,6,7-tetrahydro-4H-pyrrolo[3,2-c]pyridin-4-one] | – | –
14 | 15 | C[C@H]1NC(=O)c2cc(-c3cccc4c(=O)n(C)c(N[C@@H]5CCC[C@H](NC(=O)OC(C)(C)C)C5)nc34)[nH]c21 (racemic) [Example 509, (rac)-tert-butyl ((cis)-3-((3-methyl-8-((R)-6-methyl-4-oxo-1,4,5,6-tetrahydropyrrolo[3,4-b]pyrrol-2-yl)-4-oxo-3,4-dihydroquinazolin-2-yl)amino)cyclohexyl)carbamate] | – | –
20 | 10 | Cc1nc2cccc(-c3cc4c([nH]3)[C@@H](C)NC4=O)c2nc1N[C@H]1CCC[C@@H](NC(=O)[C@@H](CO)NC(=O)OC(C)(C)C)C1 [Example 491, tert-butyl((1R)-1-(hydroxymethyl)-2-(((1R,3S)-3-((3-methyl-8-((6R)-6-methyl-4-oxo-1,4,5,6-tetrahydropyrrolo[3,4-b]pyrrol-2-yl)-2-quinoxalinyl)amino)cyclohexyl)amino)-2-oxoethyl)carbamate] | – | –
0.3 | 0.6 | C[C@H]1NC(=O)c2cc(-c3cccc4c(=O)n(C5CCC5)c(NC(C)(C)C)nc34)[nH]c21 [Example 507, (R)-2-(tert-Butylamino)-3-cyclobutyl-8-(6-methyl-4-oxo-1,4,5,6-tetrahydropyrrolo[3,4-b]pyrrol-2-yl)quinazolin-4(3H)-one] | – | –
